Data: patent US10874101B2, “Tolerance improving agent for plants” (PHYTOCHROME INC., priority 2014, dated 2020)
Like-named read-outs stand apart in the source and are kept apart here.

Tests used:
[1] = system: photochemical system II; test: Photosynthesis activity (Fv/Fm) of Arabidopsis; format: in vivo, Arabidopsis thaliana; details: gaseous state 25 nmol/cm^3, 120 min, 25° C., light 100 μmol/m^2·s, dark adaptation 5 min
Protocol: The photosynthesis activity was measured using the maximum quantum yield (Fv/Fm) of photochemical system II as an index. Test plant object was subjected to dark adaptation (for 5 min), and Fv/Fm was measured using photosynthesis measuring apparatus Junior-PAM (Walz). The measurement was performed at least three times for different sites of the leaf and the averaged numerical value was taken as photosynthesis activity.
Arabidopsis (Arabidopsis thaliana, Columbia-0) was exposed to the compound shown in Table 4 in a gaseous, state (concentration 25 nmol/cm^3) for 120 min (temperature 25° C.) in the presence of light (100 μmol/m^2·s), subjected to a dark adaptation treatment for 5 min, and photosynthesis activity (Fv/Fm) was measured.
(§1) Arabidopsis was seeded in artificial soil material “Jiffy-7” (SAKATA SEED CORPORATION), cultured for 14 hr in light period/10 hr in dark period at 23° C. for 2-3 weeks and used.

[2] = system: HSFA2 gene; test: Expression level of HSFA2 gene in Arabidopsis (qPCR); format: in vivo, Arabidopsis thaliana; details: for fold induction at 10 nmol/cm3: Arabidopsis thaliana, 0.5 h, read-out: relative transcription level (fold), HSFA2 gene
From the text: (§2) Total RNA was extracted using RNeasy Plant Mini Kit (Quiagen), and cDNA was successively synthesized using RevaTra Ace Kit (TOYOBO CO., LTD.).
(§3) HSFA2 gene and DREB2A gene were quantified using SYBR Green qPCR Mix (TOYOBO CO., LTD.), LineGene Real-time PCR detection system (BioFlux).
(§4) The primers used for each gene expression analysis are as described below.
Arabidopsis (Arabidopsis thaliana, Columbia-0) was exposed to the compound shown in Table 2 in a gaseous state (concentration 10 nmol/cm^3) for 30 min (temperature 23° C.), and the expression level of HSFA2 gene was analyzed.
as §1

[3] = system: HSP17.6-A; test: Expression level of HSP gene HSP17.6-A in Arabidopsis (microarray); format: in vivo, Arabidopsis thaliana; details: gaseous state 10 nmol/cm^3, 30 min, 23° C., non-exposure as 1
Protocol: (§5) HSP gene was quantified by microarray analysis. The total RNA was extracted using RNeasy Plant Mini Kit (Quiagen), and double stranded cDNA was synthesized using Superscript Choice System (Life Technologies). cDNA was labeled with Cy3 by using NimbleGen One-color Labeling Kit (NimbleGen), and hybridized to DNA array (ATH6_60 mer_expr X4, NmibleGen) at 42° C. for 6 hr. DNA array was washed, Cy3 fluorescence intensity was measured by Axon GenePix 4000B scanner (NimbleGen) and quantified.
(§6) Arabidopsis (Arabidopsis thaliana, Columbia-0) was exposed to (E)-2-hexenal in a gaseous state (concentration 10 nmol/cm^3) for 30 min (temperature 23° C.), and the expression level of HSP genes (HSP17.6-C, HSP17.6-A) was analyzed.
as §1

[4] = system: DREB2A gene; test: Expression level of DREB2A gene in rice (qPCR); format: in vivo, Oryza sativa; details: rice (Nipponbare), gaseous state 10 nmol/cm^3, 30 min, 25° C.; non-exposure as 1
Protocol: as §2, §3, §4
(§7) Rice (Oryza sativa, Nipponbare) was exposed to (E)-2-hexenal in a gaseous state (concentration 10 nmol/cm^3) for 30 min (temperature 25° C.), and the expression level of HSFA2 gene and DREB2A gene was analyzed. As a result, the expression level of HSFA2 gene was 3.55-fold (relative transcription level with non-exposure to (E)-2-hexenal as 1), and the expression level of DREB2A was 3.93-fold (relative transcription level with non-exposure to (E)-2-hexenal as 1).
(§8) The rice was seeded in artificial soil material “Jiffy-7” (SAKATA SEED CORPORATION), cultured for 14 hr in light period/10 hr in dark period at 23° C. for 2-3 weeks and used.

[5] = system: Arabidopsis (Arabidopsis thaliana, Columbia-0); test: Survival rate of Arabidopsis after high temperature treatment; format: in vivo; details: gaseous state 10 nmol/cm^3 for 120 min, then 120 min at 40-45° C. in light; relative to non-exposure sample as 100(%)
Protocol: Arabidopsis (Arabidopsis thaliana, Columbia-0) was exposed to the compound shown in Table 3 in a gaseous state (concentration 10 nmol/cm^3) for 120 min, left standing for 120 min in an environmental control chamber (manufactured by NIPPON MEDICAL & CHEMICAL INSTRUMENTS CO., LTD.) set to 40-45° C. and in the presence of light (100 μmol/m^2·s), and the survival rate after lapse of 3 days was measured.
as §1
In Table 3, the survival rate is a relative value with the survival rate of a non-exposure sample (sample left standing at 45° C. for 120 min without exposure to the compound) as 100(%).

[6] = system: HSP17.6-C; test: Expression level of HSP gene HSP17.6-C in Arabidopsis (microarray); format: in vivo, Arabidopsis thaliana; details: gaseous state 10 nmol/cm^3, 30 min, 23° C., non-exposure as 1
Protocol: as §5, §6, §1

[7] = system: HSFA2 gene; test: Expression level of HSFA2 gene in rice (qPCR); format: in vivo, Oryza sativa; details: rice (Nipponbare), gaseous state 10 nmol/cm^3, 30 min, 25° C.; non-exposure as 1
Protocol: as §2, §3, §4, §7, §8

[8] = system: HSFA2 gene; test: Expression level of HSFA2 gene in tomato (qPCR); format: in vivo, Solanum lycopersicum; details: tomato (Microtom), gaseous state 10 nmol/cm^3, 30 min, 25° C.; non-exposure as 1
Protocol: as §2, §3, §4
Tomato (Solanum lycopersicum, Microtom) was exposed to (E)-2-hexenal in a gaseous state (concentration 10 nmol/cm^3) for 30 min (temperature 25° C.), and the expression level of HSFA2 gene was analyzed to find 20.2-fold (relative transcription level with non-exposure to (E)-2-hexenal as 1).
The tomato was seeded in artificial soil material “Jiffy-7” (SAKATA SEED CORPORATION), cultured for 14 hr in light period/10 hr in dark period at 23° C. for 2-3 weeks and used.

[9] = Arabidopsis, gaseous state 10 nmol/cm^3, 30 min, 23° C., relative to acetonitrile as 1

| Compound | photosynthesis activity (Fv/Fm) [1] | fold induction at 10 nmol/cm3 [2, 9] | also measured |
| --- | --- | --- | --- |
| C=CC=O [2-propenal, reference compound] | 0.393 |  |  |
| CC#N [acetonitrile, reference compound] | 0.729 |  | fold induction at 10 nmol/cm3 [2]: 1 |
| CCCCCC(C)=O [2-heptanone, reference compound] |  | 1.1 |  |
| CCCCC/C=C/C=O [(E)-2-octenal] | 0.732 | 777 |  |
| CC/C=C\CCCCC=O [(Z)-6-nonenal] | 0.745 | 270 |  |
| CCC/C=C/C=O [(E)-2-hexenal] | 0.739 |  | Relative transcription level (fold) HSP17.6-A [3]: 36.3 fold; relative transcription level, DREB2A gene [4]: 3.93 fold; fold induction at 10 nmol/cm3 [2]: 377; survival rate (%) after 3 days [5]: 170%; Relative transcription level (fold) HSP17.6-C [6]: 45.9 fold; relative transcription level, HSFA2 gene [7]: 3.55 fold; relative transcription level, HSFA2 gene [8]: 20.2 fold |
| CC/C=C\CCC=O [(Z)-4-heptenal] | 0.743 | 320 |  |
| C/C=C/C=O [(E)-2-butenal] | 0.726 |  | relative transcription level (fold), HSFA2 gene [2, 9]: 469 fold; survival rate (%) after 3 days [5]: 140% |
| CCCC/C=C/C=O [(E)-2-heptenal] | 0.748 | 642 |  |
| CCC/C=C/C(C)=O [(E)-3-hepten-2-one] |  | 266 | survival rate (%) after 3 days [5]: 159% |
| CCC/C=C/CO [(E)-2-hexenol, reference compound] |  | 0.735 |  |
| CCCCCC/C=C/C=O [(E)-2-nonenal] | 0.741 | 488 |  |
| CCCCCCC/C=C/C=O [(E)-2-decenal] | 0.753 |  |  |
| n-hexenal [reference compound] |  |  | relative transcription level (fold), HSFA2 gene [2, 9]: 7.9 fold |
| CC/C=C/C=O [(E)-2-pentenal] | 0.710 | 470 |  |
